Laboratory results as given in PubChem BioAssay (NCI).
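Each compound was tested at five concentrations against cells in 96-well plates for 48 hours. The concentration for 50% growth inhibition is given as GI50. TGI denotes the concentration required for complete inhibition of growth.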

Assays:
Test in all cases: DTP human tumour cell line panel, 48 h; in the data active = GI50 below about 0.43 µM; inactive = the rest
SR leukemia = system: SR leukemia
OVCAR-3 ovarian = system: OVCAR-3 ovarian
HS 578T breast = system: HS 578T breast
PC-3 prostate = system: PC-3 prostate
LOX IMVI melanoma = system: LOX IMVI melanoma
COLO 205 colon = system: COLO 205 colon
MCF7 breast = system: MCF7 breast
MOLT-4 leukemia = system: MOLT-4 leukemia
HOP-92 NSCLC = system: HOP-92 NSCLC
SK-MEL-28 melanoma = system: SK-MEL-28 melanoma
SK-OV-3 ovarian = system: SK-OV-3 ovarian
SF-268 CNS = system: SF-268 CNS
HOP-62 NSCLC = system: HOP-62 NSCLC
CCRF-CEM leukemia = system: CCRF-CEM leukemia
SNB-19 CNS = system: SNB-19 CNS
K-562 leukemia = system: K-562 leukemia
IGROV1 ovarian = system: IGROV1 ovarian
SF-295 CNS = system: SF-295 CNS
BT-549 breast = system: BT-549 breast
M14 melanoma = system: M14 melanoma
NCI-H522 lung = system: NCI-H522 lung
A498 renal = system: A498 renal
MALME-3M melanoma = system: MALME-3M melanoma
EKVX NSCLC = system: EKVX NSCLC
HT29 colon = system: HT29 colon
UO-31 renal = system: UO-31 renal
T-47D breast = system: T-47D breast
DU-145 prostate = system: DU-145 prostate
NCI-H226 lung = system: NCI-H226 lung

O=C(CCCCCCNC(=O)C(O)(O)C(F)(F)F)Nc1ncc(-c2ccc(Br)cc2)s1
3.1 µM: TGI (SK-OV-3 ovarian)
9.1 µM: TGI (HOP-62 NSCLC)
4.51 µM: TGI (IGROV1 ovarian)
1.51 µM: TGI (HOP-92 NSCLC) | TGI (SF-295 CNS)
inactive: GI50 (SR leukemia) 0.478 µM | GI50 (OVCAR-3 ovarian) 0.781 µM | GI50 (HS 578T breast) 1.04 µM | GI50 (PC-3 prostate) 0.957 µM | GI50 (LOX IMVI melanoma) 0.564 µM | GI50 (COLO 205 colon) 0.826 µM | GI50 (MCF7 breast) 1.3 µM | GI50 (MOLT-4 leukemia) 0.831 µM | GI50 (SK-MEL-28 melanoma) 1.12 µM | GI50 (SK-OV-3 ovarian) 1.02 µM | GI50 (SF-268 CNS) 1.29 µM | GI50 (HOP-62 NSCLC) 1.23 µM | GI50 (CCRF-CEM leukemia) 1.19 µM | GI50 (SNB-19 CNS) 1.32 µM | GI50 (K-562 leukemia) 0.442 µM | GI50 (IGROV1 ovarian) 0.846 µM | GI50 (SF-295 CNS) 0.628 µM | GI50 (BT-549 breast) 0.851 µM | GI50 (M14 melanoma) 1.47 µM | GI50 (NCI-H522 lung) 1.45 µM | GI50 (MALME-3M melanoma) 0.913 µM | GI50 (EKVX NSCLC) 1.33 µM | GI50 (HT29 colon) 0.735 µM | GI50 (UO-31 renal) 0.745 µM | GI50 (T-47D breast) 0.808 µM | GI50 (DU-145 prostate) 1.11 µM | GI50 (NCI-H226 lung) 2.4 µM
25.8 µM: TGI (T-47D breast)
6.61 µM: TGI (SNB-19 CNS)
12.2 µM: TGI (SF-268 CNS)
4.41 µM: TGI (UO-31 renal)
2.26 µM: TGI (COLO 205 colon)
active: GI50 (HOP-92 NSCLC) 0.199 µM | GI50 (A498 renal) 0.13 µM
> 31.8 µM: TGI (SR leukemia) | TGI (HS 578T breast) | TGI (PC-3 prostate) | TGI (MCF7 breast) | TGI (MOLT-4 leukemia) | TGI (SK-MEL-28 melanoma) | TGI (CCRF-CEM leukemia) | TGI (K-562 leukemia) | TGI (BT-549 breast) | TGI (M14 melanoma) | TGI (MALME-3M melanoma) | TGI (EKVX NSCLC) | TGI (HT29 colon)
6.41 µM: TGI (DU-145 prostate)
2.91 µM: TGI (OVCAR-3 ovarian)
1.36 µM: TGI (LOX IMVI melanoma)
1.65 µM: TGI (A498 renal)
13.8 µM: TGI (NCI-H522 lung)
